Experimental data published in patent US11116735B2, “Use of substituted benzylideneguanidine derivatives as synergists for polymyxin antibiotics” (GUANGZHOU INSIGHTER BIOTECHNOLOGY CO., LTD., priority 2015, dated 2021).

How the values were obtained:
[1] = system: E. coli 3Y-9; assay: MIC by doubling dilution, colistin sulfate-susceptible E. coli 3Y-9; type: cell-based, Escherichia coli
[2] = system: fast-growing yellow feather broilers; assay: Combined application of compound 3 and colistin sulfate in chicken feed; type: in vivo; conditions: 28-day experiment; for Average daily weight gain / Feed conversion ratio / Survival rate: broilers
Description: 800 1-day-aged fast-growing yellow feather broilers were divided into 4 groups, 4 parallels in each group and 50 broilers in each parallel. For each group, colistin sulfate and/or compound 3 were added into the feed. The chicken were kept in cages and given ad libitum access to feed and water during a 28-day experiment. Synergy of compound 3 and colistin sulfate on the chicken in the weight gain and feed efficiency was observed from the result (see Table 10).

[3] = system: E. coli 3H-4; assay: MIC by doubling dilution, colistin sulfate-resistant E. coli 3H-4
Description: In vitro minimum inhibitory concentrations of colistin sulfate against the strains where the cultures respectively comprised 20.0 ppm of the substituted benzylideneguanidine derivatives were also measured.

[4] = system: Salmonella sp. 3087; assay: MIC, resistance reversal by various concentrations of compound 3, Salmonella sp. 3087
Description: The compound 3 in this embodiment was in the form of a hydrochloride, i.e., the experiments were carried out with a hydrochloride of compound 3.
In vitro minimum inhibitory concentrations of colistin sulfate against the strains where the cultures respectively comprised various concentrations of compound 3 were also measured.

[5] = 20 ppm colistin sulfate and 50 ppm compound 3 in feed (Test)

CC(C)Oc1ccc(C=NN=C(N)NN=Cc2ccc(OC(C)C)cc2)cc1 [Compound 3]
In vitro minimum inhibitory concentration (MIC) of the substance alone ([1]; E. coli 3Y-9, colistin sulfate-susceptible, substance alone, derivatives as hydrochlorides): >800 ppm | In vitro MIC of colistin sulfate in the presence of the substituted benzylideneguanidine derivative ([1]; E. coli 3Y-9, culture comprised 20.0 ppm of the derivative (hydrochloride), colistin sulfate serially diluted): 0.50 ppm | Average daily weight gain [2, 5]: 44.6 g | Feed conversion ratio [2, 5]: 1.855 | Survival rate [2, 5]: 100% | Average daily weight gain ([2]; 100 ppm compound 3 in feed): 40.2 g | Feed conversion ratio ([2]; 100 ppm compound 3 in feed): 1.943 | Survival rate ([2]; 100 ppm compound 3 in feed): 100% | Synergy with colistin sulfate in weight gain and feed efficiency ([2]; chicken): Synergy | In vitro minimum inhibitory concentration (MIC) of the substance alone ([3]; E. coli 3H-4, colistin sulfate-resistant, substance alone, derivatives as hydrochlorides): >800 ppm | In vitro MIC of colistin sulfate in the presence of the substituted benzylideneguanidine derivative ([3]; E. coli 3H-4, resistant, culture comprised 20.0 ppm of the derivative (hydrochloride)): 0.5 ppm | In vitro MIC of colistin sulfate in the presence of compound 3 ([4]; 5 ppm compound 3): 64.00 ppm | In vitro MIC of colistin sulfate in the presence of compound 3 ([4]; 10 ppm compound 3): 16.00 ppm | In vitro MIC of colistin sulfate in the presence of compound 3 ([4]; 20 ppm compound 3): 4.00 ppm | In vitro MIC of colistin sulfate in the presence of compound 3 ([4]; 40 ppm compound 3): 2.00 ppm | In vitro MIC of colistin sulfate in the presence of compound 3 ([4]; 80 ppm compound 3): 1.00 ppm | In vitro MIC of the substance alone ([4]; colistin sulfate with 0 ppm compound 3, or compound 3 (hydrochloride) in the absence of colistin sulfate): >800 ppm
